According to patent US20190049429A1, “METHOD FOR OBSERVING DYNAMICS OF SWEAT GLANDS” (MANDOM CORPORATION, priority 2016, published 2019):

Columns and labels:
Format in all cases: cell-based, human
[1] = test system: isolated whole sweat glands; test: Evaluation of test substance for perspiration-controlling action: moving distance of cells in whole sweat glands stimulated with pilocarpine; conditions: atropine pre-incubated 30 minutes, pilocarpine 10 mM after 10 minutes
Protocol: Whole sweat glands were observed by time-lapse imaging in the same manner as in Example 1 except that Krebs-Ringer solution was used in place of PBS, that atropine as a test substance was added onto the whole sweat glands before observing the whole sweat glands by using time-lapse imaging and thereafter the whole sweat glands were incubated for 30 minutes, and that pilocarpine was added onto the whole sweat glands so as to have a concentration of 10 mM after 10 minutes passed from the initiation of the observation (Experiment No. 1). Next, cells E, F, G, H and I were selected from the image of FIG. 21, and a moving distance of each cell was examined in the same manner as in Example 1. Next, the average value of moving distances of cells was obtained by using the moving distance of each cell. The scale bar in FIG. 21 means 50 μm.
In addition, whole sweat glands were observed by time-lapse imaging in the same manner as in Example 1 except that Krebs-Ringer's solution was used in place of PBS and that pilocarpine was added onto the whole sweat glands so as to have a concentration of 10 mM after 10 minutes passed from the initiation of the observation (Experiment No. 2). Next, cells J, K, L, M and N were selected from the image of FIG. 22, and a moving distance of each cell was examined in the same manner as in Example 1. […]

[2] = test system: isolated whole sweat glands; test: Time-lapse imaging of stained isolated whole sweat glands held with collagen in PBS: moving distance of cells after stimulant; conditions: pilocarpine 10 mM added 60 seconds after initiation of observation, when 150 to 300 seconds passed from initiation, FIG. 5
Protocol: As skin tissues, skin tissues which were refrigerated immediately after removal from living donors and stored at 4° C. for 15 hours were used. The skin tissues were immersed in a phosphate-buffered saline containing 10 μM Neutral Red, to incorporate Neutral Red into sweat glands included in the skin tissues. Next, the dermis of each of the skin tissues was finely cut to obtain dermal segments. Whole sweat glands were collected from the dermal segments by using tweezers under an optical microscope. […]
After 5 minutes passed from the addition of the buffer, the observation with the time-lapse imaging of the whole sweat glands on the glass bottom dish was started by using a confocal laser scanning microscope for biological use (inverted microscope (manufactured by Olympus Corporation, trade name: IX-83) equipped with FV 1200 manufactured by Olympus Corporation)). At that time, the whole sweat glands were visualized by detecting fluorescence derived from the nuclear staining reagent bound to the nucleus and fluorescence derived from the cytoskeleton-staining reagent bound to the cytoskeleton. […]
wherein n is the same as mentioned above. […] The actual moving distance (μm) of the cell was calculated by multiplying the movement value by the size per coordinate 1.

[3] = test system: isolated whole sweat glands; test: Time-lapse imaging of whole sweat glands in Krebs-Ringer solution: outer and inner diameter index values of sweat gland tubule after stimulant; conditions: pilocarpine 10 mM added after 10 minutes
Protocol: Whole sweat glands were observed by time-lapse imaging in the same manner as in Example 1 except that Krebs-Ringer solution (composition: 125 mM sodium chloride, 5 mM potassium chloride, 1 mM calcium chloride, 1. 2 mM magnesium chloride, 25 mM sodium bicarbonate, 1.2 mM dihydrogen phosphate sodium, 5 mM glucose and 10 mg/100 mL of fatty acid-free bovine serum albumin, pH 7.48) was used in place of PBS. After 10 minutes passed from the initiation of the observation, pilocarpine which was a sweat gland contraction-inducing reagent (stimulant) was added to the whole sweat glands so as to have a concentration of 10 mM, and thereafter the observation of the whole sweat glands using the time-lapse imaging was continued. Next, changes of each outer diameter index values at the determined sites (A) to (C) shown in FIG. 17 with the passage of time were obtained by using the image analysis software (manufactured by BITPLANE, trade name: Imaris). The outer diameter index value was obtained by stacking data in the Z direction and performing calculation in which the image analysis software was used in the “Surface” mode under the following setting conditions: In FIG. 17, the determined site (A) is a portion enveloped by myoepithelial cells. The determined site (B) and the determined site (C) are portions which are not enveloped by myoepithelial cells, and which are flow pathways for sweat. Further, the scale bar in FIG. 17 means 50 μm. After cancelling the stacking of the data in the Z direction, changes of an inner diameter index value at the determined sites (A) to (C) shown in FIG. 18 were calculated with one kind of data in the Z direction. The internal diameter index value was obtained by preparing the surface model, then extracting the components included in the surface model with Mask tool included in an image analysis software and performing calculation with the image analysis software under the following setting conditions: […]

[4] = site not enveloped by myoepithelial cells, FIG. 19
[5] = site not enveloped by myoepithelial cells, FIG. 20

| Structure (SMILES) | perspiration-controlling action judged from sweat gland dynamics [1] | changes of a moving distance of each cell included in the sweat glands with the passage of time, compared with sweat glands not contacted with atropine ([1]; Krebs-Ringer solution, FIG. 23 vs FIG. 24) | moving distances of the cell A, the cell B, the cell C, and the cell D [2] | outer diameter index value at the determined site (A) ([3]; site enveloped by myoepithelial cells, FIG. 19) | inner diameter index value at the determined site (A) ([3]; site enveloped by myoepithelial cells, FIG. 20) | outer diameter index value at the determined site (B) [3, 4] | outer diameter index value at the determined site (C) [3, 4] | diameter index value at the determined site (B), results of FIG. 20 [3, 5] | diameter index value at the determined site (C), results of FIG. 20 [3, 5] |
| --- | --- | --- | --- | --- | --- | --- | --- | --- | --- |
| CN1[C@@H]2CC[C@H]1C[C@@H](OC(=O)C(CO)c1ccccc1)C2 (stereo partly drawn) [atropine] | has an antiperspirant action | smaller |  |  |  |  |  |  |  |
| CC[C@@H]1C(=O)OC[C@@H]1Cc1cncn1C [pilocarpine] |  |  | become larger | decreases after stimulating with the stimulant and then increases | greatly decreases after stimulating with the stimulant and then increases | increases after stimulating with the stimulant | hardly changes after stimulating with the stimulant | hardly changes immediately after stimulating with the stimulant, but the outer diameter index value increases when passing a certain time | hardly changes immediately after stimulating with the stimulant, but the outer diameter index value increases when passing a certain time |
